Measurements: US10702515B2, “Compositions containing aromatic aldehydes and their use in treatments” (Allergan, Inc., priority 2001, dated 2020)

Experiments:
[1] = test system: TPA-induced PGE2 expression in keratinocytes; test: TPA induced PGE-2 in human skin keratinocytes (ELISA); format: cell-based; conditions: Keratinocyte, Example 4 (FIG. 5), TPA 32 nM, read-out: percent inhibition of TPA induced PGE-2
Procedure: (§1) For this experiment, human skin fibroblasts were seeded into 12 well culture dishes at a density of 80,000 cells/well in tissue culture medium and left overnight to attach to the dish. The next day, medium was removed and replaced with fresh medium containing either 1% ethanol as a diluent control, IL-1 at a concentration of 500 picograms/ml, or IL-1 plus one of the compounds under investigation at a concentration of 1, 10, 50 or 100 μM. Cells were incubated for an additional 24 hours and at this time, the medium was removed and assayed by ELISA for the presence of PGE-2 in the culture medium.
Similar in vitro studies as those described in Example 3 were run using human skin keratinocytes. The experimental set up was the same as described for Example 3 but replacing IL-1 with tetradecanoyl phorbol acetate (TPA) at a concentration of 32 nM as the agonist. The compounds tested were 2-ethoxybenzaldehyde (2-EB) and 3-ethoxybenzaldehyde (3-EB) and 4-ethoxybenzaldehyde (4-EB) in concentrations of either 10, 50, or 100 μM.

IL-1 induction of PGE-2 = test: IL-1 induced PGE-2 in human skin fibroblasts (ELISA); format: cell-based; conditions: for inhibition at 100 µM: Example 3 (FIG. 4A); for inhibition at 50 µM: Example 3 (FIG. 4A/4B); for IL-1 induction of PGE-2 blocked: Example 2 dose-response (FIG. 3)
Procedure: as §1, with “dishes,” for “dishes”, “4-EB” for “one of the compounds under investigation”, “either 250 μM” for “a concentration of 1, 10, 50”, “500” for “100”, “PGE-2” for “PGE-2 in”
Subsequent studies were carried out to determine the dose-response of human skin fibroblasts to 4-EB. […] The results of the study are provided graphically in FIG. 3.
as §1

[2] = Franz cell percutaneous absorption analysis; format: in vitro ADME, human; conditions: from 1.0% 4-EB lotion; 24 hour period
Procedure: This lotion was then tested by Franz cell percutaneous absorption analysis to determine how much 4-EB could penetrate human skin over a 24 hour period. The lotion formulation above provided a flux rate of 4-EB through human skin of 30-50 micrograms/hour.

[3] = Homo sapiens, Skin fibroblast, 100 μM, IL-1 500 picograms/ml, 24 hours, read-out: Percent inhibition of IL-1 induced PGE-2
[4] = Homo sapiens, Skin fibroblast, 50 μM, IL-1 500 picograms/ml, 24 hours, read-out: Percent inhibition of IL-1 induced PGE-2

Row | SMILES | inhibition at 10 µM ([1]; 10 μM) [%] | inhibition at 50 µM [1] [%] | inhibition at 100 µM [1] [%] | inhibition at 100 µM (IL-1 induction of PGE-2; [3]) [%] | inhibition at 50 µM (IL-1 induction of PGE-2; [4]) [%] | flux rate of 4-EB through human skin [2] | inhibition of the IL-1 induction of PGE-2 (IL-1 induction of PGE-2; Example 1, 250 μM or 500 μM, IL-1 500 picograms/ml, 24 hours) | IL-1 induction of PGE-2 blocked (IL-1 induction of PGE-2; 10 μM) [%] | IL-1 induction of PGE-2 blocked (IL-1 induction of PGE-2; 50 μM) [%] | IL-1 induction of PGE-2 blocked (IL-1 induction of PGE-2; 100 μM) | inhibition of the IL-1 induced production of PGE-2 (in words) (IL-1 induction of PGE-2; Example 3, 10 or 50 μM) | inhibition at 10 µM (IL-1 induction of PGE-2; Homo sapiens, Skin fibroblast, Example 3 (FIG. 4B), 10 μM, IL-1 500 picograms/ml, 24 hours, read-out: Percent inhibition of IL-1 induced PGE-2) [%]
1 | CCOc1ccccc1C=O [2-EB, 2-ethoxybenzaldehyde] | 55.2 | 76.6 | 83 | 82.9 | 58.9 | – | – | – | – | – | – | –
2 | CCOc1cccc(C=O)c1 [3-EB, 3-ethoxybenzaldehyde] | – | 57.7 | 76.7 | 41.2 | 42.6 | – | – | – | – | – | – | –
3 | CCOc1ccc(C=O)cc1 [4-EB, 4-ethoxybenzaldehyde] | – | 79.9 | 94.9 | 81.5 | – | 30-50 micrograms/hour | complete inhibition | 35 | 82 | completely blocked | – | –
4 | COc1ccc(C=O)cc1 [4-MB, 4-methoxybenzaldehyde] | – | – | – | – | 13.6 | – | – | – | – | – | did not appear to inhibit | 16.2
